In ChEMBL document CHEMBL5120821, “Diterpenoids from Sauropus spatulifolius Leaves with Antimicrobial Activities” (2022):
≈ marks a conversion by molar mass, not a printed value. Calls of active or inactive are those of the source. No cut-off for these calls is given here.

Key:
Micrococcus luteus = experiment: Antibacterial activity against Micrococcus luteus ATCC 9341 assessed as bacterial growth inhibition incubated for 18 hrs by microdilution method; format: functional
Shigella flexneri = experiment: Antibacterial activity against Shigella flexneris ATCC 12022 assessed as bacterial growth inhibition incubated for 18 hrs by microdilution method; format: functional
Escherichia coli = experiment: Antibacterial activity against Escherichia coli ATCC 25922 assessed as bacterial growth inhibition incubated for 18 hrs by microdilution method; format: functional
Staphylococcus aureus = experiment: Antibacterial activity against Staphylococcus aureus ATCC 25923 assessed as bacterial growth inhibition incubated for 18 hrs by microdilution method; format: functional
Streptococcus pneumoniae = experiment: Antibacterial activity against Streptococcus pneumoniae ATCC 49619 assessed as bacterial growth inhibition incubated for 18 hrs by microdilution method; format: functional
Bacillus subtilis = experiment: Antibacterial activity against Bacillus subtilis ATCC 6633 assessed as bacterial growth inhibition incubated for 18 hrs by microdilution method; format: functional
[1] = system: Staphylococcus epidermidis; experiment: Antibacterial activity against Staphylococcus epidermidis ATCC 12228 assessed as bacterial growth inhibition incubated for 18 hrs by microdilution method; format: functional
Influenza A virus = experiment: Antiviral activity against PR8-GFP transfected IAV infected in MDCK cells assessed as inhibition of viral replication at MOI of 0.01 at 10 uM preincubated for 8 hrs followed by infected with virus incubated for 24 hrs by fluorescence microscope analysis; format: functional, organism-based; conditions: time 32.0 hrs
[2] = system: Vesicular stomatitis virus; experiment: Antiviral activity against GFP transfected VSV infected in MDCK cells assessed as inhibition of viral replication at MOI of 0.1 at 10 uM preincubated for 8 hrs followed by infected with virus incubated for 24 hrs by fluorescence microscope analysis; format: functional, organism-based; conditions: time 32.0 hrs
[3] = system: Vesicular stomatitis virus; experiment: Antiviral activity against GFP transfected VSV infected in MDCK cells assessed as inhibition of viral replication at MOI of 0.1 at 10 uM preincubated for 8 hrs followed by infected with virus incubated for 24 hrs by flow cytometry (reference value: 51.3+/-1.1%); format: functional; parameters: scale not given: the % may be the effect or the level left; conditions: time 32 hrs

Cc1cc2c(cc1O)[C@]1(C)C[C@@H](O)[C@@H](O)C(C)(C)[C@H]1CC2=O
MIC (Micrococcus luteus): > 64 µg/mL | MIC (Shigella flexneri): > 64 µg/mL | MIC (Escherichia coli): > 64 µg/mL | MIC (Staphylococcus aureus): > 64 µg/mL | MIC (Streptococcus pneumoniae): > 64 µg/mL | MIC (Bacillus subtilis): > 64 µg/mL | MIC [1]: > 64 µg/mL

C=Cc1ccc2c(c1)CC[C@@H]1C(C)(C)[C@H](O)[C@H](O)C[C@@]21C
MIC (Micrococcus luteus): > 64 µg/mL | MIC (Shigella flexneri): > 64 µg/mL | MIC (Escherichia coli): > 64 µg/mL | MIC (Staphylococcus aureus): > 64 µg/mL | MIC (Streptococcus pneumoniae): > 64 µg/mL | MIC (Bacillus subtilis): > 64 µg/mL | MIC [1]: > 64 µg/mL

Cc1cc2c(cc1O)[C@]1(C)C[C@@H](O)[C@@H](O)C(C)(C)[C@H]1CC2
MIC (Micrococcus luteus): 32 µg/mL (≈ 110 µM) | MIC (Shigella flexneri): 32 µg/mL (≈ 110 µM) | MIC (Escherichia coli): > 64 µg/mL | MIC (Staphylococcus aureus): 32 µg/mL (≈ 110 µM) | MIC (Streptococcus pneumoniae): 32 µg/mL (≈ 110 µM) | MIC (Bacillus subtilis): 32 µg/mL (≈ 110 µM) | MIC [1]: 32 µg/mL (≈ 110 µM)

CC1=CC2=CC[C@@H]3C(C)(C)[C@H](O)[C@H](O)C[C@@]3(C)[C@@H]2CC1=O
MIC (Micrococcus luteus): > 64 µg/mL | MIC (Shigella flexneri): > 64 µg/mL | MIC (Escherichia coli): > 64 µg/mL | MIC (Staphylococcus aureus): > 64 µg/mL | MIC (Streptococcus pneumoniae): > 64 µg/mL | MIC (Bacillus subtilis): > 64 µg/mL | MIC [1]: > 64 µg/mL

C=Cc1c(C)c(O)cc2c1CC[C@@H]1C(C)(C)[C@H](O)[C@H](O)C[C@@]21C
Activity (Influenza A virus): Active | MIC (Micrococcus luteus): 16 µg/mL (≈ 50.6 µM) | MIC (Shigella flexneri): 12 µg/mL (≈ 37.9 µM) | MIC (Escherichia coli): > 64 µg/mL | Activity [2]: Active | MIC (Staphylococcus aureus): 12 µg/mL (≈ 37.9 µM) | MIC (Streptococcus pneumoniae): 16 µg/mL (≈ 50.6 µM) | MIC (Bacillus subtilis): 12 µg/mL (≈ 37.9 µM) | MIC [1]: 12 µg/mL (≈ 37.9 µM) | Activity [3]: 3.4%

Cc1ccc2c(c1)CC[C@@H]1C(C)(C)[C@H](O)[C@H](O)C[C@@]21C
MIC (Micrococcus luteus): > 64 µg/mL | MIC (Shigella flexneri): > 64 µg/mL | MIC (Escherichia coli): > 64 µg/mL | MIC (Staphylococcus aureus): > 64 µg/mL | MIC (Streptococcus pneumoniae): > 64 µg/mL | MIC (Bacillus subtilis): > 64 µg/mL | MIC [1]: > 64 µg/mL

Cc1cc2c(cc1O)[C@]1(C)C[C@@H](O)[C@@H](O)C(C)(C)C1=CC2=O
MIC (Micrococcus luteus): > 64 µg/mL | MIC (Shigella flexneri): > 64 µg/mL | MIC (Escherichia coli): > 64 µg/mL | MIC (Staphylococcus aureus): > 64 µg/mL | MIC (Streptococcus pneumoniae): > 64 µg/mL | MIC (Bacillus subtilis): > 64 µg/mL | MIC [1]: > 64 µg/mL

CC[C@H]1OC(=O)[C@H](C)[C@@H](O[C@H]2C[C@@](C)(OC)[C@@H](O)[C@H](C)O2)[C@H](C)[C@@H](O[C@@H]2O[C@H](C)C[C@H](N(C)C)[C@H]2O)[C@](C)(OC)C[C@@H](C)C(=O)[C@H](C)[C@@H](O)[C@]1(C)O [CLARITHROMYCIN]
MIC (Micrococcus luteus): < 0.125 µg/mL | MIC (Shigella flexneri): < 0.125 µg/mL | MIC (Escherichia coli): 2 µg/mL (≈ 2.67 µM) | MIC (Staphylococcus aureus): 0.25 µg/mL (≈ 0.334 µM) | MIC (Streptococcus pneumoniae): < 0.125 µg/mL | MIC (Bacillus subtilis): < 0.125 µg/mL | MIC [1]: 0.25 µg/mL (≈ 0.334 µM)

C=CC1=C(C)C(=O)C=C2[C@]1(O)CC[C@@H]1C(C)(C)[C@H](O)[C@H](O)C[C@@]21C
MIC (Micrococcus luteus): > 64 µg/mL | MIC (Shigella flexneri): > 64 µg/mL | MIC (Escherichia coli): > 64 µg/mL | MIC (Staphylococcus aureus): > 64 µg/mL | MIC (Streptococcus pneumoniae): > 64 µg/mL | MIC (Bacillus subtilis): > 64 µg/mL | MIC [1]: > 64 µg/mL
